Tests used:
murine Bcrp1 = biological target: T1, murine Bcrp1 (Mus musculus, UniProt Q7TMS5); assay: Transport of Compound I across MDCKII-Bcrp1 monolayers; assay type: in vitro ADME
T1 construct: expressed in transfected cells; host or cells: MDCKII (Madin-Darby canine kidney strain II) cells, stably transfected
T1 sequence (Q7TMS5 1-657): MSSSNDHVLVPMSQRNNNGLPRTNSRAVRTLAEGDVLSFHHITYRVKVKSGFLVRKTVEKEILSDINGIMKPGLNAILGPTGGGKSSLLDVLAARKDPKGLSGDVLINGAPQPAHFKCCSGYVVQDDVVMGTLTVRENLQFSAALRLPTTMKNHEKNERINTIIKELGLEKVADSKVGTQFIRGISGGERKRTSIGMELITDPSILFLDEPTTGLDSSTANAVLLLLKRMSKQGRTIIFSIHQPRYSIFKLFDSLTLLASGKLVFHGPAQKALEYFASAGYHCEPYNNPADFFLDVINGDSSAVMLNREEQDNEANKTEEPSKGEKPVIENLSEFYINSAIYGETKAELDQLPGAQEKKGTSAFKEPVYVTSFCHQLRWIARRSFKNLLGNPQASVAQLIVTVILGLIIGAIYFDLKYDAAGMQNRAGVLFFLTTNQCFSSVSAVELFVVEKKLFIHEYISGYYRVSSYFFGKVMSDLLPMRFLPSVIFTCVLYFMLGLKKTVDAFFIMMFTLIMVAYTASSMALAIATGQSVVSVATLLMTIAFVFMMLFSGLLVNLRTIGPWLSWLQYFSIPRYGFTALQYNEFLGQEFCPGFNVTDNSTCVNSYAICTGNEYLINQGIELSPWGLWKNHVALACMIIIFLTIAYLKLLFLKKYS
Method: Transport across MDCKII monolayers. […] Animals.
Transport of Compound I across MDCKII monolayers. […] To exclude any contribution of P-gp (12), the P-gp inhibitor zosuquidar (5 μM) is added (18).

Bcrp1 = biological target: T2, Bcrp1 (Mus musculus, UniProt Q7TMS5); assay: Effect of pantoprazole and elacridar on Bcrp1-mediated transport of Compound I in MDCKII transfected cells; assay type: in vitro ADME, murine; settings: 1 μM Compound I, zosuquidar 5 μM added for pantoprazole, data not shown
T2 construct: expressed in transfected cells; host or cells: MDCKII (Madin-Darby canine kidney strain II) cells, stably transfected
T2 sequence (Q7TMS5 1-657): T1 sequence (Q7TMS5 1-657)
Method: Transport across MDCKII monolayers. The MDCKII (Madin-Darby canine kidney strain II) cells are cultured in Dulbecco's Modified Eagle's Medium supplemented with 10% fetal calf serum and 100 units penicillin/streptomycin per ml. Cells are grown at 37° C. with 5% CO2 under humidifying conditions. […] Animals. […] Mice are housed and handled according to institutional guidelines complying with Dutch legislation.
In the experiments in which the effect of pantoprazole is studied, the P-gp inhibitor zosuquidar (5 μM) is added to exclude any contribution of P-gp.

P-gp = settings: single dose of elacridar; approximately; cited from earlier work

SMILES: Cc1ccc(NC(=O)c2ccc(CN3CCN(C)CC3)cc2)cc1Nc1nccc(-c2cccnc2)n1 [Compound I]
- net active transport of Compound I by Bcrp1 (murine Bcrp1; 1 and 10 μM Compound I, MDCKII-Bcrp1 and parental cells, P-gp inhibitor zosuquidar 5 μM added): approximately 20 % per h
- concentration above which Bcrp1 transport of Compound I is saturable (murine Bcrp1; MDCKII-Bcrp1, zosuquidar 5 μM added): above 10 μM

SMILES: COc1cc2c(cc1OC)CN(CCc1ccc(NC(=O)c3cccc4c(=O)c5cccc(OC)c5[nH]c34)cc1)CC2 [elacridar]
- effect on Bcrp1-mediated transport of Compound I (Bcrp1): inhibit
- P-gp inhibition (P-gp): 70-80%
